Data: PubChem BioAssay (NCI)
Where “and” joins values, the source holds several entries; their conditions need not be identical. Identical values can stand only once.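 Five compound concentrations were applied to cells in 96-well plates for 48 hours; endpoints were derived by simple linear interpolation of the resulting dose-response curve. GI50: concentration for 50% inhibition of growth. The concentration for full growth arrest is given as TGI.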

Experiments:
Experiment in all cases: NCI anticancer screen, dose series, 48 h
HT29 colon = tested on: HT29 colon
CCRF-CEM leukemia = tested on: CCRF-CEM leukemia
OVCAR-4 ovarian = tested on: OVCAR-4 ovarian
PC-3 prostate = tested on: PC-3 prostate
HCC-2998 colon = tested on: HCC-2998 colon
CAKI-1 renal = tested on: CAKI-1 renal
786-0 renal = tested on: 786-0 renal
SK-OV-3 ovarian = tested on: SK-OV-3 ovarian
LOX IMVI melanoma = tested on: LOX IMVI melanoma
SF-539 CNS = tested on: SF-539 CNS

Work on `O=C1NC(=N[C@H](CO)c2ccccc2)S/C1=C\c1ccc2ncccc2c1` yielded a GI50 (HT29 colon) of 6100 nM, a TGI (HT29 colon) of over 25 µM and a GI50 (CCRF-CEM leukemia) of 4630 nM. It also gave a TGI (CCRF-CEM leukemia) of 16.7 µM, a GI50 (OVCAR-4 ovarian) of 2670 nM and a TGI (OVCAR-4 ovarian) of over 25 µM. The GI50 (PC-3 prostate) was 4070 nM, the TGI (PC-3 prostate) was over 25 µM and the GI50 (HCC-2998 colon) was 7960 nM. For the same compound, the TGI (HCC-2998 colon) was over 25 µM, the GI50 (CAKI-1 renal) was 3750 nM and the TGI (CAKI-1 renal) was over 16 µM. The GI50 (786-0 renal) was 7310 nM, the TGI (786-0 renal) was over 25 µM and the GI50 (SK-OV-3 ovarian) was 5110 nM. It also gave a TGI (SK-OV-3 ovarian) of 17.6 µM, a GI50 (LOX IMVI melanoma) of 2410 nM and a TGI (LOX IMVI melanoma) of 22 µM. It also gave a GI50 (SF-539 CNS) of 2660 nM and a TGI (SF-539 CNS) of 7.67 µM.

In the case of `CS(=O)(=O)N1CCc2c(-c3cnc(N)nc3)nc(N3CCOCC3)nc21`, the GI50 (HT29 colon) is reported as 260 nM and 307 nM, the TGI (HT29 colon) is reported as over 77.5 µM and the GI50 (CCRF-CEM leukemia) is reported as 658 nM and 1230 nM. The TGI (CCRF-CEM leukemia) was over 100 µM, the GI50 (OVCAR-4 ovarian) was 1210 nM and 945 nM and the TGI (OVCAR-4 ovarian) was over 25.7 µM. The GI50 (PC-3 prostate) was 279 nM and 258 nM, the TGI (PC-3 prostate) was > 5.95 µM and 11 µM and the GI50 (HCC-2998 colon) was 923 nM and 794 nM. The TGI (HCC-2998 colon) was over 73.5 µM, the GI50 (CAKI-1 renal) was 484 nM and 651 nM and the TGI (CAKI-1 renal) was > 10 µM and 7.76 µM. The GI50 (786-0 renal) was 696 nM and 562 nM, the TGI (786-0 renal) was > 8.81 µM and 16.5 µM and the GI50 (SK-OV-3 ovarian) was 128 nM and 166 nM. For the same compound, the TGI (SK-OV-3 ovarian) was 0.692 µM and 1.37 µM, the GI50 (LOX IMVI melanoma) was 579 nM and 406 nM and the TGI (LOX IMVI melanoma) was over 94.2 µM. The GI50 (SF-539 CNS) was 835 nM and 878 nM and the TGI (SF-539 CNS) was 4.13 µM and 3.89 µM.

For `COc1ccc2nc3cc(Cl)ccc3c(Nc3cc(C(C)C)c(O)cc3C)c2c1`, the GI50 (HT29 colon) was 2310 nM, the TGI (HT29 colon) was 6.07 µM and the GI50 (CCRF-CEM leukemia) was 2080 nM. It also gave a TGI (CCRF-CEM leukemia) of 6.63 µM, a GI50 (OVCAR-4 ovarian) of 2500 nM and a TGI (OVCAR-4 ovarian) of 9.46 µM. The GI50 (PC-3 prostate) was 1700 nM, the TGI (PC-3 prostate) was 4.79 µM and the GI50 (HCC-2998 colon) was 2220 nM. For the same compound, the TGI (HCC-2998 colon) was 5.58 µM, the GI50 (CAKI-1 renal) was 2100 nM and the TGI (CAKI-1 renal) was 5.42 µM. The GI50 (786-0 renal) was 1640 nM, the TGI (786-0 renal) was 3.05 µM and the GI50 (SK-OV-3 ovarian) was 2390 nM. The TGI (SK-OV-3 ovarian) was 6.88 µM, the GI50 (LOX IMVI melanoma) was 1790 nM and the TGI (LOX IMVI melanoma) was 3.3 µM. For the same compound, the GI50 (SF-539 CNS) was 1810 nM and the TGI (SF-539 CNS) was 3.61 µM.

`Cc1cc(C#Cc2ccccc2)ccc1-n1c(/C=C/c2cc(O)ccc2O)nc2ccccc2c1=O` gave a GI50 (HT29 colon) of 1970 nM, a TGI (HT29 colon) of 4.19 µM and a GI50 (CCRF-CEM leukemia) of 1540 nM. The TGI (CCRF-CEM leukemia) was 7.13 µM, the GI50 (OVCAR-4 ovarian) was 2400 nM and the TGI (OVCAR-4 ovarian) was 8.5 µM. It also gave a GI50 (PC-3 prostate) of 2190 nM, a TGI (PC-3 prostate) of 8.34 µM and a GI50 (HCC-2998 colon) of 1360 nM. It also gave a TGI (HCC-2998 colon) of 2.64 µM, a GI50 (CAKI-1 renal) of 2150 nM and a TGI (CAKI-1 renal) of 7.24 µM. For the same compound, the GI50 (786-0 renal) was 1740 nM, the TGI (786-0 renal) was 3.15 µM and the GI50 (SK-OV-3 ovarian) was 1830 nM. It also gave a TGI (SK-OV-3 ovarian) of 4.61 µM, a GI50 (LOX IMVI melanoma) of 1370 nM and a TGI (LOX IMVI melanoma) of 2.65 µM. It also gave a GI50 (SF-539 CNS) of 1600 nM and a TGI (SF-539 CNS) of 3.44 µM.

Work on `C=C1C(=O)C2(C)OC2(C)C1C(=O)O` (stereo not given) yielded a TGI (HT29 colon) of over 100 µM, a TGI (CCRF-CEM leukemia) of over 100 µM and a TGI (OVCAR-4 ovarian) of over 100 µM. For the same compound, the TGI (PC-3 prostate) was over 100 µM, the TGI (HCC-2998 colon) was over 100 µM and the TGI (CAKI-1 renal) was over 100 µM. It also gave a TGI (786-0 renal) of over 100 µM, a TGI (SK-OV-3 ovarian) of over 100 µM and a TGI (LOX IMVI melanoma) of over 100 µM. It also gave a TGI (SF-539 CNS) of over 100 µM.

Work on `C#Cc1ccc(-n2c(/C=C/c3ccc4ccccc4c3)nc3ncccc3c2=O)cc1` yielded a GI50 (HT29 colon) of 3260 nM, a TGI (HT29 colon) of over 100 µM and a GI50 (CCRF-CEM leukemia) of 1530 nM. For the same compound, the TGI (CCRF-CEM leukemia) was over 100 µM, the GI50 (OVCAR-4 ovarian) was 1950 nM and the TGI (OVCAR-4 ovarian) was over 100 µM. The GI50 (PC-3 prostate) was 2350 nM, the TGI (PC-3 prostate) was over 100 µM and the GI50 (HCC-2998 colon) was 2320 nM. The TGI (HCC-2998 colon) was 5.04 µM, the GI50 (CAKI-1 renal) was 2980 nM and the TGI (CAKI-1 renal) was over 100 µM. It also gave a GI50 (786-0 renal) of 4080 nM, a TGI (786-0 renal) of over 100 µM and a GI50 (SK-OV-3 ovarian) of 7550 nM. It also gave a TGI (SK-OV-3 ovarian) of over 100 µM, a GI50 (LOX IMVI melanoma) of 517 nM and a TGI (LOX IMVI melanoma) of 3.11 µM. The GI50 (SF-539 CNS) was 2910 nM and the TGI (SF-539 CNS) was over 100 µM.
